Assays:
plasma bile acid = test: Plasma bile acid concentrations in ZDF rats; type: in vivo
Method: (§1) Male Zucker diabetic fatty rats (ZDF/GmiCrl-fa/fa) were purchased from Charles River (Raleigh, N.C.) and housed under controlled conditions (12:12 light-dark cycle, 24° C. and 50% relative humidity) with free access to rodent food (Purina 5008, Harlan Teklad, Indianapolis, Ind.). All rats arrived at seven weeks of age (±3 days). After a one-week acclimation period, rats were anesthetized with isoflurane (Abbott Laboratories, IL) and tail-vein blood samples were collected at 9 am without fasting. Blood glucose levels were measured using a glucometer (Bayer, Leverkusen, Germany). In order to ensure balanced treatment groups, ZDF rats were assigned to six treatment groups based upon baseline glucose: vehicle (0.5% HPMC, 0.1% Tween80) and five doses of 264W94 (0.001, 0.01, 0.1, 1, 10 mg/kg). All treatments were given via oral gavage twice a day and animals were followed for two weeks with blood samples collected from tail vein at the end of each week at 9 am without fasting. Fecal samples were collected for 24 hours during the second week of treatment.
(§2) Non-esterified fatty acids (NEFA), bile acids, and bile acids in fecal extraction were measured using the Olympus AU640 clinical chemistry analyzer (Beckman Coulter, Irving, Tex.).
Male ZDF rats (n=4) were administered vehicle, SC-435 (1, 10 or 30 mg/kg) or LUM002 (0.3, 1, 3, 10 or 30 mg/kg) by oral gavage twice a day for 2 weeks. Plasma bile acid levels were determined at the end of the second week. […] Data are expressed as mean values±SEM.

bile acids in the feces = test: Fecal bile acid excretion in ZDF rats after oral 264W94; type: in vivo, Zucker diabetic fatty rats (ZDF/GmiCrl-fa/fa)
Method: as §1, §2

[1] = system: Alanine Aminotransferase (ALAT); test: Plasma alanine aminotransferase in ZDF rats, week 3; type: in vivo; details: twice daily oral gavage
plasma amylase = test: Plasma amylase in ZDF rats, week 3; type: in vivo; details: twice daily oral gavage
plasma lipase = test: Plasma lipase in ZDF rats, week 3; type: in vivo; details: twice daily oral gavage
plasma triglycerides = test: Plasma triglycerides in ZDF rats, week 3; type: in vivo; details: twice daily oral gavage, no dose-related response
Hemoglobin A1c (HbA1c) = test: Baseline-corrected percent HbA1c in ZDF rats; type: in vivo; details: twice daily oral gavage
total serum bile acids = test: Plasma total serum bile acids in ZDF rats, week 3; type: in vivo; details: twice daily oral gavage
GLP-2 = GLP-2 in plasma of non-fasted ZDF rats, 2 weeks treatment; type: in vivo
[2] = system: Alkaline Phosphatase (ALP); details: twice daily oral gavage; Week 3
Method: This study was conducted to determine the effects of two non-absorbed ASBTi compounds in the ZDF rat model after 3 weeks of treatment.
Animals were acclimatized for 5-7 days after arrival. […] The 2nd set of study was initiated after completion of the 1st. Test compound formulation prepared every other day and stored at 4° C. […] After 3rd week of treatment blood samples were collected by cardiac puncture from fasted animals for blood chemistry analysis: ALAT, ASAT, GGT, Alkaline Phosphatase and total Bile Acids. Tests were performed in contract clinical laboratory (Liver Profile SA320, Antech Diagnostics, Orange Country, Calif.).
Blood was collected by tail vein bleed weekly and after 3 weeks of treatment by cardiopuncture for serum tests. Data for each group is presented as the Mean Value±SEM. Statistically evaluation by t-test: *P<0.05, **P<0.01,***P<0.001 vs. vehicle group.

[3] = 264W94 0.001-10 mg/kg oral gavage twice a day, 2 weeks

Row | Compound | Plasma bile acid concentrations (plasma bile acid; [3]) | Bile acids in the feces (bile acids in the feces; [3]) | Fecal bile acid concentrations elevated vs vehicle treated rats (bile acids in the feces; 264W94 0.001-10 mg/kg oral gavage twice a day, 24 h feces in second week) | Fecal NEFA (bile acids in the feces; 264W94 oral gavage twice a day, 2 weeks) | ED50 (fecal bile acid elevation) (bile acids in the feces; oral gavage twice a day, 2 weeks) | Plasma alanine aminotransferase (ALAT) [1] | Plasma amylase (plasma amylase) | Plasma bile acid levels (plasma bile acid; SC-435 1, 10 or 30 mg/kg, LUM002 0.3, 1, 3, 10 or 30 mg/kg, oral gavage twice a day, end of second week, n=4) | Plasma lipase (plasma lipase) | Fasting plasma triglycerides (plasma triglycerides) | Baseline-corrected percent HbA1c (Hemoglobin A1c (HbA1c)) | Plasma total serum bile acids (SBA) (total serum bile acids) | GLP-2 in plasma (GLP-2) | Plasma alkaline phosphatase (ALP) [2]
1 | CCCC[C@]1(CC)CS(=O)(=O)c2cc(OC)c(OC)cc2[C@@H](c2ccccc2)N1 [Compound 264W94] | decreased dose-dependently | dose-dependently increased | up to 6.5 fold | slightly increased | 0.17 mg/kg |  |  |  |  |  |  |  |  | 
2 | CCCCC1(CCCC)CS(=O)(=O)c2ccc(N(C)C)cc2[C@@H](c2ccc(OCCCC[N+]34CCN(CC3)CC4)cc2)[C@H]1O.CS(=O)(=O)[O-] [SC-435, 1-[4-[4-[(4R,5R)-3,3-dibutyl-7-(dimethylamino)-2,3,4,5-tetrahydro-4-hydroxy-1,1-dioxido-1-benzothiepin-5-yl]phenoxy]butyl]4-aza-1-azoniabicyclo[2.2.2]octane methanesulfonate salt, reference compound] |  |  |  |  |  | Neither LUM002 nor SC-435 caused statistically significant reductions | Neither LUM002 nor SC-435 caused a statistically significant changes | decreased for all doses | statistically significant reductions in plasma lipase at higher doses | statistically significant elevations | significant dose-dependent reductions | statistically significant reductions in SBA | significant elevations in GLP2 at higher doses | significant reductions in ALP

— patent US20140271734A1, “BILE ACID RECYCLING INHIBITORS FOR TREATMENT OF BARRETT'S ESOPHAGUS AND GASTROESOPHAGEAL REFLUX DISEASE” (LUMENA PHARMACEUTICALS, INC., priority 2013, published 2014)
